Reference: paper PMC10046369, “Low-Affinity/High-Selectivity Dopamine Transport Inhibition Sufficient to Rescue Cognitive Functions in the Aging Rat” (Biomolecules, 2023)

Key:
Test in all cases: cell-based
Set-up in all cases: Eurofins Cerep functional GPCR screen, antagonist mode, inhibition of control agonist response
Settings in all cases: read-out: % Inhibition of Control Agonist Response, Mean
α2C = target: T1, α2C (Homo sapiens, UniProt P18825)
T1 construct: gene ADRA2C

CCR3 = CCR3 (Homo sapiens, UniProt P51677)
CCR2 = CCR2 (Homo sapiens, UniProt P41597)
Ghrelin / GHSR-1a = target: T2, Ghrelin / GHSR-1a (Homo sapiens, UniProt Q92847)
T2 construct: GHSR-1a isoform

APJ (apelin) = target: T3, APJ (apelin) (Homo sapiens, UniProt P35414)
T3 construct: gene APLNR

CXCR3 = CXCR3 (Homo sapiens, UniProt P49682)
CB2 = target: T4, CB2 (Homo sapiens, UniProt P34972)
T4 construct: gene CNR2

D1 = target: T5, D1 (Homo sapiens, UniProt P21728)
T5 construct: gene DRD1

AT1 = target: T6, AT1 (Homo sapiens, UniProt P30556)
T6 construct: gene AGTR1

D5 = target: T7, D5 (Homo sapiens, UniProt P21918)
T7 construct: gene DRD5

D4.4 = target: T8, D4.4 (Homo sapiens, UniProt P21917)
T8 construct: gene DRD4; D4.4

α2B = target: T9, α2B (Homo sapiens, UniProt P18089)
T9 construct: gene ADRA2B

β1 = target: T10, β1 (Homo sapiens, UniProt P08588)
T10 construct: gene ADRB1

ChemR23 = target: T11, ChemR23 (Homo sapiens, UniProt Q99788)
T11 construct: gene CMKLR1

CXCR6 = CXCR6 (Homo sapiens, UniProt O00574)
CXCR4 = CXCR4 (Homo sapiens, UniProt P61073)
alpha 1D = target: T12, alpha 1D (Homo sapiens, UniProt P25100)
T12 construct: gene ADRA1D

GIP = target: T13, GIP (Homo sapiens, UniProt P48546)
T13 construct: gene GIPR

C3aR = target: T14, C3aR (Homo sapiens, UniProt Q16581)
T14 construct: gene C3AR1

CXCR5 = CXCR5 (Homo sapiens, UniProt P32302)
CCR8 = CCR8 (Homo sapiens, UniProt P51685)
β2 = target: T15, β2 (Homo sapiens, UniProt P07550)
T15 construct: gene ADRB2

CCR6 = CCR6 (Homo sapiens, UniProt P51684)
GAL1 = target: T16, GAL1 (Homo sapiens, UniProt P47211)
T16 construct: gene GALR1

GnRH = target: T17, GnRH (Homo sapiens, UniProt P30968)
T17 construct: gene GNRHR

FFA2 = target: T18, FFA2 (Homo sapiens, UniProt O15552)
T18 construct: gene FFAR2

T3 sequence (P35414 whole entry): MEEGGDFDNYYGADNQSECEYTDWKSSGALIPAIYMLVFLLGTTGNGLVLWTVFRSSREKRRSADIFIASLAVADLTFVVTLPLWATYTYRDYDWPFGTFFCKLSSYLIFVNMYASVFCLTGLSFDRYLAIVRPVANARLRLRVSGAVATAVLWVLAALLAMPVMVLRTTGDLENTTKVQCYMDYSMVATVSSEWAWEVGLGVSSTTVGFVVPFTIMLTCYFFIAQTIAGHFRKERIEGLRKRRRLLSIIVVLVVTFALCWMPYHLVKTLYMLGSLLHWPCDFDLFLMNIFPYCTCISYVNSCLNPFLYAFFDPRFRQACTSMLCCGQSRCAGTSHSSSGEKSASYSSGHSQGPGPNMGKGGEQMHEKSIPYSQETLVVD
T8 sequence (P21917 whole entry): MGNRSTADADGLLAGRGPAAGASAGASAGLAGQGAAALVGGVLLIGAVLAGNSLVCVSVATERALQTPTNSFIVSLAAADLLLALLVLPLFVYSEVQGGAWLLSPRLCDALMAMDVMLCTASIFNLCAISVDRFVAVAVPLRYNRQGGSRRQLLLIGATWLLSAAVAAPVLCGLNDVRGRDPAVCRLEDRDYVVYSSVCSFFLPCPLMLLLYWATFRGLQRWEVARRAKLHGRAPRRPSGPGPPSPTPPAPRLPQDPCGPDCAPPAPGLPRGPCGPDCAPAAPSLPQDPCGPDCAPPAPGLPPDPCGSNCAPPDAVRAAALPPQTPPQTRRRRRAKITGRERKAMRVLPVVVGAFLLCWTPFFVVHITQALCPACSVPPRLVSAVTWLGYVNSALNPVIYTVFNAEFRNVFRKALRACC
Sequence of CXCR4 (P61073 whole entry): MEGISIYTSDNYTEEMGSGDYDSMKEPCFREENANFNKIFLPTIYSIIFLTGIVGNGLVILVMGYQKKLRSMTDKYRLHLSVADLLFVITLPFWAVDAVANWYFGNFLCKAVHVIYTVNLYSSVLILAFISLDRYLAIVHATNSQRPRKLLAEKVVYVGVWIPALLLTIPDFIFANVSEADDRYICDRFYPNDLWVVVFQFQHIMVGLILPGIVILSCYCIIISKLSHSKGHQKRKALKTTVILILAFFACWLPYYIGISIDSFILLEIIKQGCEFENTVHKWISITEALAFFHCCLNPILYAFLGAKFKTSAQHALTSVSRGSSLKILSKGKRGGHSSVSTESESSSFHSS
T15 sequence (P07550 whole entry): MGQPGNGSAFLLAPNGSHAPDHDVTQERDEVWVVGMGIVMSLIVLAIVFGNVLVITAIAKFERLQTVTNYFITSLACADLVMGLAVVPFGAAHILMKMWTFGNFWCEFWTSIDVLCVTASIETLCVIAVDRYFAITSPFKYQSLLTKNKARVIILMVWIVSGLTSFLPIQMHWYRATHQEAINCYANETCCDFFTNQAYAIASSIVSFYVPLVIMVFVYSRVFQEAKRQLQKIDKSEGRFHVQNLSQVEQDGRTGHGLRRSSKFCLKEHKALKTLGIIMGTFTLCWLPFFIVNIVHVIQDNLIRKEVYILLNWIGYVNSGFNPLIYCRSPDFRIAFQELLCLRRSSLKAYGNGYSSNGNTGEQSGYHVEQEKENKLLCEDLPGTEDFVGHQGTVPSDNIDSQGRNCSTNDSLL
T5 sequence (P21728 whole entry): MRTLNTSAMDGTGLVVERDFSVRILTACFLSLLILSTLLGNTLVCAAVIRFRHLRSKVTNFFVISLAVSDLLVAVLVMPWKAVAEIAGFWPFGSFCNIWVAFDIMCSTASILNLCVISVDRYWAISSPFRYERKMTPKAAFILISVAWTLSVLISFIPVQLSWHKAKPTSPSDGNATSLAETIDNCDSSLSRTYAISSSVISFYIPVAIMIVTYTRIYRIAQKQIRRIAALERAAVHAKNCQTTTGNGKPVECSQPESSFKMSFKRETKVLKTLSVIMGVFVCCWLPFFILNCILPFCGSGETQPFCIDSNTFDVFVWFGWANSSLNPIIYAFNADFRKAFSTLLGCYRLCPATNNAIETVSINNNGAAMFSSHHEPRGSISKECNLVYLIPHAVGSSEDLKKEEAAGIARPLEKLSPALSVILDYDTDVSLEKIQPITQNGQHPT
T4 sequence (P34972 whole entry): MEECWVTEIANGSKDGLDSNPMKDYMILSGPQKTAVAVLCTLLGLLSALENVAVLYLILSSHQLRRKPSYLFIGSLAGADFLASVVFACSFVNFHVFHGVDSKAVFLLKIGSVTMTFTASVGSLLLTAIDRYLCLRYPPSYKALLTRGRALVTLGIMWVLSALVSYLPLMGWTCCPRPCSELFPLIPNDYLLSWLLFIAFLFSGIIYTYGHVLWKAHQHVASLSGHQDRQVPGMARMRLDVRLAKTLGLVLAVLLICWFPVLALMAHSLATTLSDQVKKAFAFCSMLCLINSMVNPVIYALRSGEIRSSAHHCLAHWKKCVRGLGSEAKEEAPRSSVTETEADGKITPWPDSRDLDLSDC
T17 sequence (P30968 whole entry): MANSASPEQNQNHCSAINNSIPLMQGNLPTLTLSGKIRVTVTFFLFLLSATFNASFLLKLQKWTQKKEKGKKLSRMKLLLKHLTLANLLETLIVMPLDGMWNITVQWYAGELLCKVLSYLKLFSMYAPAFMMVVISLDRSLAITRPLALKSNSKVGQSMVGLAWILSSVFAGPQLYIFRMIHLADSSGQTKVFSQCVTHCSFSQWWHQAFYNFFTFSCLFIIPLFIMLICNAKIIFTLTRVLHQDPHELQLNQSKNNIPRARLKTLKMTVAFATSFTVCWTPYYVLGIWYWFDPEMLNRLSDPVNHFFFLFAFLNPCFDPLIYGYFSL
Sequence of CXCR6 (O00574 whole entry): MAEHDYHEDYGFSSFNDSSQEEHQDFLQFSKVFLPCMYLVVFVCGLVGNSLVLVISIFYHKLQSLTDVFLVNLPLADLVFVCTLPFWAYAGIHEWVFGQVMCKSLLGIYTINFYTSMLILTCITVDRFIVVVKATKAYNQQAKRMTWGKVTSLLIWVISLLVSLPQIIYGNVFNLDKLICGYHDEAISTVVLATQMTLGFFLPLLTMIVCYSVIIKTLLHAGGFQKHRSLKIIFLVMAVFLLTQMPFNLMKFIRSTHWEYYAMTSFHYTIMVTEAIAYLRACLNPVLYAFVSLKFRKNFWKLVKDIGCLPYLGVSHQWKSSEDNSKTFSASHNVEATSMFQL
Sequence of CXCR5 (P32302 whole entry): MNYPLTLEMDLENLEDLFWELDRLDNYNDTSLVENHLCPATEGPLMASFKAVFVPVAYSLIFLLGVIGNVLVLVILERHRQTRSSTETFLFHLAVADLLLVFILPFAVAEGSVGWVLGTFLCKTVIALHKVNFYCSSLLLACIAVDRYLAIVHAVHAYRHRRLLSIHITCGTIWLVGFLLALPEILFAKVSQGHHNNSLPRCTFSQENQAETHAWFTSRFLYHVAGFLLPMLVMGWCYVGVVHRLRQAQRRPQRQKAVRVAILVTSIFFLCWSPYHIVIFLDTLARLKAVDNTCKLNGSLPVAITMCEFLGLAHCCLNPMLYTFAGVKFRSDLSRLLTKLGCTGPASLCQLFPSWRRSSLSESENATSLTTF
T6 sequence (P30556 whole entry): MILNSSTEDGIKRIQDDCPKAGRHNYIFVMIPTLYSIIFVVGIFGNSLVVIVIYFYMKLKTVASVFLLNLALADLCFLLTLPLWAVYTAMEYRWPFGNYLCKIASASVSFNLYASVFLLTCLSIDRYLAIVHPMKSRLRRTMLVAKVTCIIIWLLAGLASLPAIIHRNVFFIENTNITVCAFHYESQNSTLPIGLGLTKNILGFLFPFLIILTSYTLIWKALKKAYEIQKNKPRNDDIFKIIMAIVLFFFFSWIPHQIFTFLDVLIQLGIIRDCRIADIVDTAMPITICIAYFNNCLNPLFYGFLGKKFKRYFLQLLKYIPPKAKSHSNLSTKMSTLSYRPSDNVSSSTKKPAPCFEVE
Sequence of CCR6 (P51684 whole entry): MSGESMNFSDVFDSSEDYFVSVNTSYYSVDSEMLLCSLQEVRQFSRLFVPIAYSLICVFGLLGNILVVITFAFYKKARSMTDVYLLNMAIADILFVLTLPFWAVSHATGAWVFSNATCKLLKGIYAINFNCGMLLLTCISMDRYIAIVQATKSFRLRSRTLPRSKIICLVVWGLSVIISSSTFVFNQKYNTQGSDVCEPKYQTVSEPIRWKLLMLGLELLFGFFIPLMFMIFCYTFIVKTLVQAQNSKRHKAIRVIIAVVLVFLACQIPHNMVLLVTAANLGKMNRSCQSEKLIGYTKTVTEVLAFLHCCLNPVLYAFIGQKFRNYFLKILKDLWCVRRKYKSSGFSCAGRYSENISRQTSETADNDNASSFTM
T11 sequence (Q99788 whole entry): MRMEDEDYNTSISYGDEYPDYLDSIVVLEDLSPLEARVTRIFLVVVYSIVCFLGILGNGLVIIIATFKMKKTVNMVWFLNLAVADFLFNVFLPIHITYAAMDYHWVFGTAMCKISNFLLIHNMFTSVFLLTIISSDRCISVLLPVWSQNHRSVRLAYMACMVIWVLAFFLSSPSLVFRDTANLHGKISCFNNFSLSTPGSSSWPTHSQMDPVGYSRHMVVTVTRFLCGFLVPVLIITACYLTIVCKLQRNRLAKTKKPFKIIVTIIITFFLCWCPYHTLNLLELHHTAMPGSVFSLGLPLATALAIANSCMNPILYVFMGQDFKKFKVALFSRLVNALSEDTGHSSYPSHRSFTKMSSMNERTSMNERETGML
Sequence of CCR2 (P41597 whole entry): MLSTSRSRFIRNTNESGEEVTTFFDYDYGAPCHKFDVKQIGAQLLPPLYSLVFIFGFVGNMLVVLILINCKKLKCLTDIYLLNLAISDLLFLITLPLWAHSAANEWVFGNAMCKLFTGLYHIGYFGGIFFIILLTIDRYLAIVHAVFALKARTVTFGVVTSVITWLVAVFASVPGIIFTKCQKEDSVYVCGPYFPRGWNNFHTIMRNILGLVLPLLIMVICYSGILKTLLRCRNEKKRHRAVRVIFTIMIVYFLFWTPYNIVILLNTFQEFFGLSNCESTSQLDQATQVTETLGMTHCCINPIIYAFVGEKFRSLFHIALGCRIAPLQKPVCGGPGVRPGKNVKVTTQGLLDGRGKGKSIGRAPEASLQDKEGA

SMILES: [O-][S@@+](Cc1cncs1)C(c1ccccc1)c1ccccc1 [S-CE-123, (S)-5-((Benzhydrylsulfinyl)Methyl)Thiazole]
- inhibition at 2.8 µM (α2C): 0.3%
- inhibition at 2.8 µM (CCR3): -10.7%
- inhibition at 2.8 µM (CCR2): 2%
- inhibition at 2.8 µM (Ghrelin / GHSR-1a): -11.7%
- inhibition at 2.8 µM (APJ (apelin)): 6.2%
- inhibition at 2.8 µM (CXCR3): -7.8%
- inhibition at 2.8 µM (CB2): 8.6%
- inhibition at 2.8 µM (D1): -5.6%
- inhibition at 2.8 µM (AT1): 3%
- inhibition at 2.8 µM (D5): -10.8%
- inhibition at 2.8 µM (D4.4): -7.9%
- inhibition at 2.8 µM (α2B): -8.3%
- inhibition at 2.8 µM (β1): 18.4%
- inhibition at 2.8 µM (ChemR23): -1.6%
- inhibition at 2.8 µM (CXCR6): -7.6%
- inhibition at 2.8 µM (CXCR4): -40.7%
- inhibition at 2.8 µM (alpha 1D): -2.4%
- inhibition at 2.8 µM (GIP): -6.6%
- inhibition at 2.8 µM (C3aR): 11.4%
- inhibition at 2.8 µM (CXCR5): -1.9%
- inhibition at 2.8 µM (CCR8): -19.9%
- inhibition at 2.8 µM (β2): -1.2%
- inhibition at 2.8 µM (CCR6): -26.7%
- inhibition at 2.8 µM (GAL1): 2.3%
- inhibition at 2.8 µM (GnRH): 3.9%
- inhibition at 2.8 µM (FFA2): 2.9%
